Assay results: PubChem BioAssay (NCI)
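Exposure lasted 48 hours, with cells grown in 96-well plates and compounds tested at five concentrations. The concentration for 50% growth inhibition is given as GI50. TGI: total growth inhibition.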

Experiments:
Test in all cases: growth of human tumour cells (NCI), 48 h
RPMI-8226 leukemia = test system: RPMI-8226 leukemia
NCI-H23 lung = test system: NCI-H23 lung
OVCAR-3 ovarian = test system: OVCAR-3 ovarian
SF-295 CNS = test system: SF-295 CNS
DLD-1 colon = test system: DLD-1 colon
MALME-3M melanoma = test system: MALME-3M melanoma
SK-MEL-5 melanoma = test system: SK-MEL-5 melanoma
TK-10 renal = test system: TK-10 renal
LXFL 529 NSCLC = test system: LXFL 529 NSCLC
RXF 393 renal = test system: RXF 393 renal

SMILES | TGI (RPMI-8226 leukemia) | TGI (NCI-H23 lung) | TGI (OVCAR-3 ovarian) | TGI (SF-295 CNS) | TGI (DLD-1 colon) | TGI (MALME-3M melanoma) | TGI (SK-MEL-5 melanoma) | TGI (TK-10 renal) | TGI (LXFL 529 NSCLC) | GI50 (RPMI-8226 leukemia) | GI50 (NCI-H23 lung) | GI50 (OVCAR-3 ovarian) | GI50 (RXF 393 renal) | TGI (RXF 393 renal) | GI50 (SF-295 CNS) | GI50 (MALME-3M melanoma) | GI50 (SK-MEL-5 melanoma) | GI50 (TK-10 renal)
O=C(CCC(=O)C1CCC/C1=N/O)Nc1ccc(Cl)cc1 (stereo not drawn) | > 100 µM | > 100 µM | > 100 µM | > 100 µM | > 100 µM | > 100 µM | > 100 µM | > 100 µM | > 100 µM | – | – | – | – | – | – | – | – | –
C=C1C(=O)O[C@H]2[C@H]1CC/C(COC(=O)NCc1ccc(Cn3c(=O)sn(-c4ccccc4)c3=O)cc1)=C\CC[C@@]1(C)O[C@@H]21 | 6.26 µM | 12.6 µM | 3.12 µM | 21.8 µM | – | 4.06 µM | 11.5 µM | 4.05 µM | – | 2.03 µM | 3.55 µM | 1.68 µM | 1.75 µM | 3.4 µM | 8.52 µM | 2.09 µM | 3.24 µM | 2.21 µM
Cc1cc(I)cc(CN(C)CCCN2CCN(C)CC2)c1O | 45.2 µM | > 100 µM | > 100 µM | 39.6 µM | – | 36.2 µM | 29.9 µM | > 100 µM | – | 16.1 µM | 82.4 µM | > 64.5 µM | 21.7 µM | > 81.2 µM | 18.5 µM | 19.9 µM | 16.1 µM | 61.7 µM
O=C(O)/C(=C\c1ccncc1)c1cccc2ccccc12 | > 100 µM | > 100 µM | > 100 µM | > 100 µM | – | > 100 µM | > 100 µM | > 100 µM | – | – | – | – | – | > 100 µM | – | – | – | –
O=C(CCc1ccc(O)cc1)N/N=C/c1cc(Br)ccc1O | 33.3 µM | > 100 µM | 23.6 µM | > 100 µM | – | 28.3 µM | 18.1 µM | > 100 µM | – | 3.57 µM | 7.42 µM | 4.03 µM | 6.51 µM | > 100 µM | 3.25 µM | 4.01 µM | 3.4 µM | 7.35 µM
Cc1ccc([C@]2(C)CC[C@H](C)/C2=C\Br)c(O)c1 | 24.7 µM | 24.9 µM | 12.2 µM | 11.6 µM | – | 14.1 µM | 15.5 µM | 14.1 µM | – | 3.21 µM | 11.4 µM | 3.23 µM | 3.08 µM | 12.4 µM | 3.4 µM | 3.88 µM | 3.88 µM | 3.35 µM
Cc1cc(Nc2cc(N)ncn2)c(=O)n2c1C(=O)NC21CCCCC1 | > 100 µM | > 100 µM | > 100 µM | > 100 µM | – | > 100 µM | > 100 µM | > 100 µM | – | > 100 µM | > 100 µM | > 100 µM | 37.7 µM | > 100 µM | 46.8 µM | > 100 µM | > 100 µM | > 100 µM
O=C(NC(=S)Nc1cc(Cl)ccc1O)c1cccc(Br)c1 | > 100 µM | > 100 µM | 24.9 µM | 24.9 µM | – | 55.4 µM | > 100 µM | 78.9 µM | – | 4.15 µM | 7.93 µM | 4.72 µM | 18.7 µM | 92.3 µM | 3.59 µM | 9.33 µM | 6.21 µM | 17.1 µM
